Test [1] deals with T1, urokinase-type plasminogen activator (uPA) (Homo sapiens, UniProt P00749).
T1 construct: from tissue; host or cells: human urine
The test can be described thus: Determination of inhibitory activity, Ki by Dixon plotting, uPA. Format: biochemical. The following applies: for selectivity between matriptase and uPA (less potent for uPA than for matriptase): ratio of Ki values; for Ki: substrate N-t-Boc-Leu-Gly-Arg-AMC, pH 8.5, room temperature. The text has this: (§1) Materials. Active matriptase was purified from human milk as will be described later. Active urokinase-type plasminogen activator (uPA) was purified by aminobenzamidine-Sepharose 6B (Amersham Pharmacia, Piscataway, N.J.) from a partially purified uPA from human urine. Bovin β-trypsin, bovine thrombin, and fluorescent peptide substrates N-tert-Butoxy-Carbonyl (N-t-Boc)-Gln-Ala-Arg-7-Amido-4-Methylcoumarin (AMC), N-t-Boc-Leu-Gly-Arg-AMC, and N-t-Boc-Leu-Arg-Arg-AMC were purchased from Sigma (Sigma Chemical Company, St. Louis). Small molecule inhibitors were obtained from the Drug Synthesis & Chemistry Branch, Developmental Therapeutics Program, Division of Cancer Treatment and Diagnosis, National Cancer Institute. Other chemicals are all reagent grade.
(§2) Determination of Inhibitory Activity. Inhibitory activity of compounds against each protease was measured at room temperature using fluorescent substrate peptides in 100 mM Tris-HCl (pH 8.5), containing 100 μg/ml of bovine serum albumin. To a cuvette containing 170 μl buffer was added 10 μl of enzyme solution and 10 μl of inhibitors. After pre-incubation, 10 μl of substrate was added, and the solution was mixed well by shaking the cuvette. The residual enzyme activity was then determined by following the change of fluorescence released by hydrolysis of the fluorescent substrates in a fluorescent spectrophotometer (HITACHI F4500), with excitation at 360 nm and emission at 480 nm. Peptide N-t-Boc-Gln-Ala-Arg-AMC was used as a substrate for matriptase and trypsin, peptide N-t-Boc-Leu-Gly-Arg-AMC was used as a substrate for uPA, and peptide N-t-Boc-Leu-Arg-Arg-AMC was used as a substrate for thrombin.
(§3) Kinetic Screening of Compound Inhibitors. The inhibitory activity of each compound was first investigated by using a fixed (75 μM) concentration both of inhibitor and matriptase. […] We recorded the rate of hydrolysis in duplicate in the presence of 6-7 different concentrations of each inhibitor. A straight line of the concentration of inhibitor versus the reciprocal values of the rate of hydrolysis was plotted with SigmaPlot software. Two lines were obtained from two unsaturated substrate concentrations; the X value of the intersection of these lines gives the value of −Ki.

Test [2] addresses T2, matriptase (Homo sapiens, UniProt Q9Y5Y6).
T2 construct: Gels containing the 70-kDa active matriptase was sliced out, and eluted from gel; from tissue; host or cells: human milk
T2 sequence (Q9Y5Y6 615-855 limits assumed): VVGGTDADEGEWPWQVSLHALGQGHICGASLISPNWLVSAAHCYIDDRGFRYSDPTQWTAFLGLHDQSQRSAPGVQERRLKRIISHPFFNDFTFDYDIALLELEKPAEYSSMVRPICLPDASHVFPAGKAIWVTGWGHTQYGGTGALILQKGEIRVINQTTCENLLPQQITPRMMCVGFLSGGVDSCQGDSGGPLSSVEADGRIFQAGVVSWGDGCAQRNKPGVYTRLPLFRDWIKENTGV
T2 sequence (Q9Y5Y6 190-614 partner limits assumed): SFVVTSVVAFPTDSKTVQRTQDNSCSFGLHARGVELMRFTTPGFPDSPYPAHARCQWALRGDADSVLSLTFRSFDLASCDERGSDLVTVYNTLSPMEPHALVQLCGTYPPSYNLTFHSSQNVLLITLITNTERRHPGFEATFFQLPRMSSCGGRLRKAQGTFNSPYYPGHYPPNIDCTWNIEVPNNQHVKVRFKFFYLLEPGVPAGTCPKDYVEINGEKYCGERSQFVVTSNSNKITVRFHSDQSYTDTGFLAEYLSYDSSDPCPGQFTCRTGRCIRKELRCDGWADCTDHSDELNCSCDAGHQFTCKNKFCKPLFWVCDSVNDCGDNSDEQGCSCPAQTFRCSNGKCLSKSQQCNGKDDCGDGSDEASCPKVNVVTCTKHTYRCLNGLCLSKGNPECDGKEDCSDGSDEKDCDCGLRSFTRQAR
Briefly: Determination of inhibitory activity, Ki by Dixon plotting, matriptase. Format: biochemical.
Text: Purification of Active Form Matriptase. Activated matriptase, in a complex with its endogenous inhibitor HAI-1, was purified from human milk by immunoaffinity chromatography, and maintained in its uncomplexed status in glycine buffer pH 2.4, as described previously^11. Matritpase and HAI-1 were further separated by 10% SDS polyacryamide gel electrophoresis. The proteins were stained by Zinc stain Kit (Bio-Rad, Hercules, Calif.). Gels containing the 70-kDa active matriptase was sliced out, and eluted from gel using Electro-Eluter (Bio-Rad, Hercules, Calif.) under non-denatured conditions (Tris-Glysine buffer pH 8.3). Purified, active matriptase was then stored at −80° C. in acid solution.
as §2, §3

For a further test, the target named is T3, bovine thrombin (Bos taurus, UniProt P00735).
T3 construct: bovine thrombin; purchased Sigma (Sigma Chemical Company, St. Louis)
The test can be described thus: Determination of inhibitory activity, Ki by Dixon plotting, thrombin. Format: biochemical. Conditions: for Ki: substrate N-t-Boc-Leu-Arg-Arg-AMC, pH 8.5, room temperature.
Text: as §1, §2, §3

Test [3] concerns the target T2, matriptase. The test can be described thus: Matriptase enzyme activity and kinetic parameters with fluorescent peptide substrates. Format: biochemical. The text has this: Purification of active Matriptase_Active matriptase, in the complex form with its endogenous inhibitor HAI-1, was purified from human milk. To separate matriptase from the bound HAI-1, the complex was dissociated by acid and resolved in 10% SDS polyacryamide gel electrophoresis. The proteins were stained by Zinc stain Kit (Bio-Rad, Hercules, Calif.), the 70-kDa active matriptase was sliced out, and eluted from gel using Electro-Eluter (Bio-Rad, Hercules, Calif.) under non-denatured condition (Tris-Glysine buffer pH 8.3).
Determination of matriptase activity_The enzyme activity of matriptase was measured at room temperature in a reaction buffer containing 100 mM Tris-HCl (pH 8.5) and 100_g/ml of BSA using fluorescent peptide as substrate. In brief, 10_l of enzyme solution and 10_l of peptide substrate were added to a cuvette containing 180_l of the reaction buffer. The mixture was mixed well, placed back to a fluorescent spectrophotometer (HITACH F4500), and the release of fluorescence resulting from hydrolysis of the peptide substrate was recorded with excitation at 360 nm and emission at 480 nm.
Determination of kinetic parameter_Substrate concentration versus initial reaction velocity were analyzed by the Michaelis-Menten equation and plotted using SigmaPlot software. Double reciprocal (Lineweaver-Burk) plots thus derived were used to determine Vmax and Km values.
Table 1. Kinetic Parameters of Matriptase for Various Peptide Substrates. […], the release of fluorescence resulting from hydrolysis of the peptide was recorded in a fluorescent spectrophotometer at room temperature with excitation at 360 nm and emission at 480 nm. Km and Vmax were determined by double reciprocal plot derived from Michaelis-Menten equation: […]

In test [4] the test system is PC-3 prostate cancer tumors. The following applies: nude mice; cited from earlier work.
Setting [5] is: read-out: Ki value against matriptase (bound stated in text).
[6] abbreviates: substrate N-t-Boc-Gln-Ala-Arg-AMC, pH 8.5, room temperature, read-out: Ki Matriptase.
[7] abbreviates: peptide-AMC substrate hydrolysis by matriptase, room temperature.

“Also recorded” adds a separate entry of the source. Read-outs that look alike come from different tables or passages of the source.

For the compound `N=C(N)c1ccc(OCCCCCCOc2ccc(C(=N)N)cc2)cc1` [Compound 1, hexamidine, reference compound], the “selectivity between matriptase and uPA (less potent for uPA than for matriptase)” value in test [1] stood at 16 fold. Moreover, the inhibition constant (Ki) in test [1] is 14400 nM; at matriptase [2] (setting [5]), < 1000 nM; at matriptase [2] (setting [6]) it was 924 nM; at bovine thrombin it was 224 nM. The “selectivity matriptase versus thrombin/uPA” value at matriptase [2] is on record as “thrombin selective”.
As to `N=C(N)c1ccc(OCCCCCCOc2ccc(C(=N)N)cc2I)cc1` [Compound 2], the inhibitory constant (Ki) is 1980 nM in test [1], < 1000 nM at matriptase [2] (setting [5]), 191 nM on matriptase [2] (setting [6]) and 796 nM on bovine thrombin. Besides, on matriptase [2], the “selectivity matriptase versus thrombin/uPA” value is reported as “more selective for matriptase versus thrombin”. The “improved potency for matriptase” value on matriptase [2] (compared with compound 1) is listed as “approximately 5 fold”. In addition, the “decreased potency for thrombin” value at bovine thrombin (compared with compound 1) is “approximately 4 fold”.
Consider `N=C(N)c1ccc(OCCCCCOc2ccc(C(=N)N)cc2)cc1` [Compound 3], for which the inhibitory constant (Ki) on matriptase [2] (setting [6]) turned out to be 1160 nM.
On to `N=C(N)c1ccc(/N=N/c2c(O)ccc3cc4c(/N=N/c5ccc(C(=N)N)cc5)c(O)ccc4cc23)cc1` [Compound 4], for which the Ki was 4500 nM at matriptase [2] (setting [6]) and 28400 nM on bovine thrombin.
As for `N=C(N)c1ccc(OCCCOc2ccc(C(=N)N)cc2Br)c(Br)c1` [Compound 5], the Ki in test [1] is 1570 nM; at matriptase [2] (setting [5]) it was < 1000 nM; on matriptase [2] (setting [6]), 535 nM; at bovine thrombin, 946 nM. For the same compound, the “more potent against matriptase” value at matriptase [2] (compared with 1 and 3) is given as “approximately 2 fold”.
Take `N=C(N)c1ccc(Oc2ccc(Oc3ccc(C(=N)N)cc3)cc2)cc1` [Compound 7]: the “selectivity between matriptase and uPA (less potent for uPA than for matriptase)” value in test [1] worked out at 9 fold. In addition, the Ki in test [1] is 1950 nM; on matriptase [2] (setting [5]), < 1000 nM; at matriptase [2] (setting [6]), 208 nM; at bovine thrombin, 2670 nM. For the same compound, the “selectivity matriptase versus thrombin/uPA” value at matriptase [2] is given as “most selective inhibitor for matriptase; also recorded: matriptase selective; also recorded: most selective compound”. For the same compound, on bovine thrombin (ratio of Ki values), the “selectivity between matriptase and thrombin” value worked out at 13 fold.
For `CC(=O)N[C@@H](CC(C)C)C(=O)N[C@@H](CC(C)C)C(=O)N[C@H](C=O)CCCNC(=N)N` [leupeptin], the “inhibition of matriptase enzyme activity” value on matriptase [3] is recorded as “can also inhibit matriptase enzyme activity”.
For ecotin, in test [4], the “growth of PC-3 prostate cancer tumors” value is on record as “retards the growth”.
As for hexamidine [Compound 1], on matriptase [3] (setting [7]), the Michaelis constant (Km) was 4.89 µM and the Vmax was found to be 654 nM Amc/min.

These data come from patent US6677377B2, “Structure based discovery of inhibitors of matriptase for the treatment of cancer and other conditions” (Georgetown University School of Medicine, priority 2000, dated 2004).
